Results: US5480887A, “Protease inhibitors” (Eli Lilly and Company, priority 1994, dated 1996)
Where two headings read alike, the source gives them in different places.

Columns and labels:
HIV-1 Protease = target: T1, HIV-1 Protease (Human immunodeficiency virus type 1 group M subtype B, UniProt P04585); assay: biochemical; conditions: read-out: Fluorescence Assay IC50 (converted)
T1 construct: HIV-1 Protease
Procedure: These compounds may be assayed using two assays: (1) an enzyme inhibition assay, and (2) an antiviral cell culture assay.
This assay is described in detail in published European Patent Application (EPA) 0 526 009, herein incorporated by reference. Using this assay, a number of the compounds, prepared above, were assayed for HIV protease inhibitory activity.
The assay is unable to test compounds at less than a concentration of 0.16 ng/mL.

HIV = assay: microbe, parasite or virus in culture; format: cell-based; conditions: XTT, 450 nm, * (n) = average of n assays, read-out: Antiviral Activity IC90
Procedure: In addition, the compounds described in the present application may be tested using an antiviral cell culture assay as described in Weislow, O.S., J. of National Cancer Institute, 81(8), pages 577-586 (Apr. 19, 1989) herein incorporated by reference.
This assay compares the viability of HIV-infected cells in a cell culture medium relative to the viability of such cells in the presence of a test compound. The concentration of test compound necessary to inhibit 90% of the virus is then measured using the viability of the cells as an indicator of viral inhibition. This assay is carried out using cell lines that are sensitive to the lyric effects of HIV infection.
Specifically, this assay utilizes the metabolic reduction of a tetrazolium reagent, 2,3-bis[2-methoxy-4-nitro-5-sulfophenyl]-5-[(phenylamino)carbonyl]-2H-tetrazolium hydroxide (XTT). In the presence of a viable cell, the tetrazolium reagent, XTT, is reduced to provide XTT formazan which may be quantified using colorimetric determination (at 450 nm). The intensity of the chromogenic signal is directly proportional to the concentration of the XTT formazan, thus providing a measure of the quantity of viable cells.

[1] = Human immunodeficiency virus 1, concentration inhibiting 90% of the viral-induced toxicity
[2] = concentration inhibiting 90% of the viral-induced toxicity

| SMILES | IC50 (HIV-1 Protease) | IC90 (HIV; [1]) | IC90 (HIV; [2]) |
| --- | --- | --- | --- |
| CC(C)(C)NC(=O)[C@@H]1C[C@@H]2SCC[C@@H]2CN1C[C@@H](O)[C@H](Cc1ccccc1)NC(=O)[C@@H](CS(=O)(=O)c1cccc2cccnc12)NS(C)(=O)=O [Example 26, N-t-Butyl-octahydro-5[2R-hydroxy-3S-phenylmethyl-4-aza-5-oxo-6S-N(methylsulfonyl)amino-7-quinolin-8-ylsulfonyl-heptyl]-(3aR,7aS)-thieno[3,2-c]pyridine-(6S)-carboxamide] | 0.389 nM | 225 nM |  |
| CC(=O)N[C@H](CS(=O)(=O)c1ccc2ccccc2c1)C(=O)N[C@@H](Cc1ccccc1)[C@H](O)CN1C[C@H]2CCS[C@H]2C[C@H]1C(=O)NC(C)(C)C [Example 28] | 2.67 nM | 21.8 nM |  |
| CC(C)(C)NC(=O)[C@@H]1C[C@@H]2SCC[C@@H]2CN1C[C@@H](O)[C@H](CSc1ccccc1)NC(=O)[C@@H](CS(=O)(=O)c1ccc(F)cc1)NC(=O)C(F)(F)F [Example 29, N-t-Butyl-octahydro-5[2R-hydroxy-3R-phenylthiomethyl-4-aza-5-oxo-6S-N(trifluoromethylcarbonyl)amino-7-p-fluorophenylsulfonyl-heptyl]-(3aR,7aS)-thieno[3,2-c]pyridine-(6S)-carboxamide] | 11.1 nM | 754 nM |  |
| CC(C)(C)NC(=O)[C@@H]1C[C@@H]2SCC[C@@H]2CN1C[C@@H](O)[C@H](CSc1ccccc1)NC(=O)[C@@H](CS(=O)(=O)c1ccc2ccccc2c1)NC(=O)C(F)(F)F [Example 30B, N-t-Butyl-octahydro-5[2R-hydroxy-3R-phenylthiomethyl-4-aza-5-oxo-6S-N(trifluoromethylcarbonyl)amino-7-naphth-2-ylsulfonyl-heptyl]-(3aR,7aS)-thieno[3,2-c]pyridine-(6S)-carboxamide] | 1.96 nM | 203 nM |  |
| C[C@H]1[C@@H](OC(=O)N[C@@H](CSc2ccccc2)[C@H](O)CN2C[C@H]3CCS[C@H]3C[C@H]2C(=O)NC(C)(C)C)CCS1(=O)=O [Example 37D, N-t-Butyl-octahydro-5[2R-hydroxy-3R-N(1',1'-dioxo-2'S-methyl-tetrahydrothiophen-3'S-yloxycarbonyl)amino-4-phenylthio)-butyl]-(3aR,7aS)-thieno[3,2-c] pyridine-(6S)-carboxamide methanesulfonate] | 0.358 nM |  | 1.8 nM |
| C[C@@H]1[C@H](OC(=O)N[C@@H](CSc2ccccc2)[C@H](O)CN2C[C@H]3CCS[C@H]3C[C@H]2C(=O)NC(C)(C)C)CCS1(=O)=O [Example 38D, N-t-Butyl-octahydro-5[2R-hydroxy-3R-N(1',1'-dioxo-2'R-methyl-tetrahydrothiophen-3'R-yloxycarbonyl)amino-4-phenylthio)-butyl]-(3aR,7aS)-thieno[3,2c] pyridine-(6S)-carboxamide methanesulfonate] | 7.28 nM |  | 7.1 nM |
